The text below walks through data of patent publication US20230295564A1, “Galectin-9 Specific Binding Agents for Use in Treating Cancer” (Emory University, priority 2020, published 2023).

Like-named read-outs stand apart in the source and are kept apart here.

One data set deals with human B-ALL cell lines. The experiment in a line: Annexin-V/PI cell death of human B-ALL cell lines pre-conditioned with RPMI, SCM or ACM. As to the method: Human B-ALL cell lines (Nalm6, REH,) were cultured for 24 hours in unconditioned medium (RPMI), stromal cell-conditioned medium (SCM), or adipocyte-conditioned medium (ACM) and then treated with anti-GAL-9 antibody (αGAL-9 Ab) or an IgG control antibody (IgG ctrl) for an additional 2 days with or without MTX. The percentage of apoptotic and dead cells on day 3 of culture was determined using Annexin-V/ PI staining followed by flow cytometric analysis.
Thus, additional experiments were performed to determine how adipocyte-conditioned medium (ACM)-exposed B-ALL cells responded to chemotherapy treatment. In obese patients, leukemia cells would be exposed to an adipocyte-rich microenvironment prior to chemotherapy administration. To mimic this scenario in vitro, human B-ALL cell lines were pre-treated for 24 hours with unconditioned medium (RPMI), stromal cell-conditioned medium (SCM), or ACM prior to the addition of methotrexate (MTX) for 2 days.

Another data set concerns mB-ALL cell cultures. Description: ACM-induced chemoresistance in mB-ALL cell cultures. Format: cell-based, murine.
Data set [1] deals with murine BCR-ABL+ Arf-/- B-ALL (mB-ALL). The conditions noted are these: for survival: once weekly from day 7, MTX 0.75 mg/kg, αGAL-9 Ab 1.5 mg/kg.
Protocol: Lean and obese mice were inoculated intravenously with murine Bcr-Abl+ Arf-/- B-ALL cells (mB-ALL). On day 7 post-inoculation, when GFP+ leukemic blasts were detected in the peripheral blood, treatment with DMSO (Vehicle, n=10), 0.75 mg/kg methotrexate (MTX, n=10), 1.5 mg/kg anti-galectin-9 antibody (αGAL-9 Ab, n=10), or (MTX + αGAL-9 Ab) a combined was initiated. Treatments were administered once weekly. Survival was monitored and significance was determined using the log-rank test with “A” representing a statistically significant difference between vehicle and MTX-treated mice, “B” between vehicle and anti-Gal-9 treated groups, and “C” between vehicle and MTX + anti-Gal-9 treated mice.
A murine BCR-ABL+ Arf-/- B-ALL (mB-ALL) model was used to test whether treatment with anti-GAL-9 antibody could be used as a therapy to treat obese mice with B-ALL. […] C57BL/6 mice were maintained on lean and high-fat diets as previously described and then challenged with mB-ALL. Treatment with vehicle, MTX, anti-GAL-9 antibody, or a combination of MTX and anti-GAL-9 antibody was initiated on day 7 after leukemia inoculation, when GFP+ B-ALL cells were detected in the peripheral blood.

In the case of `COc1cccc2c1C(=O)c1c(O)c3c(c(O)c1C2=O)C[C@@](O)(C(=O)CO)C[C@@H]3O[C@H]1C[C@H](N)[C@H](O)[C@H](C)O1` [doxorubicin], in the data set on human B-ALL cell lines, the “resistance induced by exposure to ACM” value is given as “induced resistance”. Besides, the “chemoresistance induced by ACM” value with mB-ALL cell cultures was “induced chemoresistance”.

For the compound `CN(Cc1cnc2nc(N)nc(N)c2n1)c1ccc(C(=O)N[C@@H](CCC(=O)O)C(=O)O)cc1` [MTX, methotrexate], the survival result in data set [1] (lean mice) is on record as “significantly extended the survival”. Moreover, in data set [1] (obese mice), the weight loss entry is listed as “loss substantial weight” and the survival result was “not significantly protected”. For the same compound, the “decrease of MTX-induced cell death” value in the data set on human B-ALL cell lines (cultures pre-treated with ACM) is recorded as 40-70%. Further, the “MTX-induced cell death, effect of pre-conditioning” value in the data set on human B-ALL cell lines (pre-conditioning with SCM) is “not impacted”. Further, the “chemoresistance induced by ACM” value with mB-ALL cell cultures is “induced chemoresistance”.

Consider `CC[C@]1(O)C[C@H]2CN(CCc3c([nH]c4ccccc34)[C@@](C(=O)OC)(c3cc4c(cc3OC)N(C=O)[C@H]3[C@@](O)(C(=O)OC)[C@H](OC(C)=O)[C@]5(CC)C=CCN6CC[C@]43[C@@H]65)C2)C1` [vincristine], for which, in the data set with human B-ALL cell lines, the “resistance induced by exposure to ACM” value is given as “induced resistance”.
